Measurements as given in ChEMBL document CHEMBL1629606, “In vitro and in vivo properties of ellagic acid in malaria treatment” (Antimicrob Agents Chemother, 2009).
Activity calls are given as the source filed them. No cut-off for these calls is given here.

How the values were obtained:
[1] = tested on: Plasmodium falciparum; experiment: Antiplasmodial activity against chloroquine-resistant Plasmodium falciparum W2 assessed as 50% revertant concentration required for chloroquine susceptibility; format: functional
[2] = tested on: Plasmodium falciparum; experiment: Antiplasmodial activity against […] Plasmodium falciparum Dd2 assessed as 50% revertant concentration required for mefloquine resistant; format: functional
[3] = tested on: Plasmodium falciparum; experiment: Antiplasmodial activity against Plasmodium falciparum FcM29; format: functional, organism-based
[4] = tested on: Plasmodium falciparum; experiment: Antiplasmodial activity against Plasmodium falciparum W2; format: functional, organism-based
[5] = tested on: Plasmodium falciparum; experiment: Antiplasmodial activity against Plasmodium falciparum Dd2; format: functional, organism-based
[6] = tested on: Plasmodium falciparum; experiment: Antiplasmodial activity against Plasmodium falciparum F32; format: functional, organism-based
[7] = tested on: Mus musculus; experiment: Toxicity in Swiss mouse at 250 mg/kg/day, ip for 4 days measured upto day 30; format: organism-based; set-up: route intraperitoneal; conditions: in vivo, 96 h
[8] = tested on: Plasmodium falciparum; experiment: Antiplasmodial activity against Plasmodium falciparum FcM29 assessed as inhibition of parasite growth at 180 nM in presence of 0.87 uM N-acetyl-L-cysteine; format: functional, organism-based
[9] = tested on: Plasmodium vinckei petteri; experiment: Antiplasmodial activity against Plasmodium vinckei petteri infected in Swiss mouse assessed as survival at 10 mg/kg, ip treated 4 days before infection measured on day 9 postinfection; format: functional, organism-based; set-up: dose 10 mg/kg
[10] = tested on: MRC5; experiment: Cytotoxicity against human MRC5 cells at 100 uM by MTS assay; format: cell-based; conditions: mrc5, 100 µM
[11] = tested on: Mus musculus; experiment: Toxicity in Swiss mouse at 500 mg/kg/day, po for 4 days measured upto day 30; format: organism-based; set-up: route oral; conditions: in vivo, 96 h
[12] = tested on: Plasmodium vinckei petteri; experiment: Antiplasmodial activity against Plasmodium vinckei petteri infected in Swiss mouse assessed as recrudescence of malaria at 100 mg/kg/day, ip measured upto day 60 postinfection; format: functional, organism-based
[13] = tested on: Mus musculus; experiment: Toxicity in Swiss mouse at 500 mg/kg/day, ip for 4 days measured upto day 30; format: organism-based; set-up: route intraperitoneal; conditions: in vivo, 96 h
[14] = tested on: Mus musculus; experiment: Toxicity in Swiss mouse at 100 mg/kg/day, po for 4 days measured upto day 30; format: organism-based; set-up: route oral; conditions: in vivo, 96 h
[15] = tested on: KB; experiment: Cytotoxicity against human KB cells at 100 uM by MTS assay; format: cell-based
[16] = tested on: Mus musculus; experiment: Toxicity in Swiss mouse at 1000 mg/kg/day, ip for 4 days measured upto day 30; format: organism-based; set-up: route intraperitoneal; conditions: in vivo, 96 h
[17] = tested on: Plasmodium vinckei petteri; experiment: Antiplasmodial activity against Plasmodium vinckei petteri infected in Swiss mouse assessed as survival at 10 mg/kg, ip treated 4 days before infection measured on day 6 postinfection; format: functional, organism-based; set-up: dose 10 mg/kg
[18] = tested on: Plasmodium vinckei petteri; experiment: Antiplasmodial activity against Plasmodium vinckei petteri infected in Swiss mouse assessed as recrudescence of malaria at 5 mg/kg/day, ip measured upto day 60 postinfection; format: functional, organism-based
[19] = tested on: Plasmodium vinckei petteri; experiment: Antiplasmodial activity against Plasmodium vinckei petteri infected in Swiss mouse assessed as inhibition of parasite growth at 100 mg/kg/day, po measured on day 5 postinfection; format: functional, organism-based
[20] = tested on: Plasmodium vinckei petteri; experiment: Antiplasmodial activity against Plasmodium vinckei petteri infected in Swiss mouse assessed as mortality at 100 mg/kg, po treated 4 days after infection measured on day 7 postinfection; format: functional, organism-based; set-up: dose 100 mg/kg
[21] = tested on: Plasmodium falciparum; experiment: Antiplasmodial activity against Plasmodium falciparum FcB1; format: functional, organism-based; conditions: FcB1/Columbia
[22] = tested on: Plasmodium vinckei petteri; experiment: Antiplasmodial activity against Plasmodium vinckei petteri infected in Swiss mouse assessed as inhibition of parasite growth at 50 mg/kg/day, ip measured on day 4 postinfection; format: functional; conditions: 96 h, route intraperitoneal
[23] = tested on: Mus musculus; experiment: Toxicity in Swiss mouse at 100 mg/kg/day, ip for 4 days measured upto day 30; format: organism-based; set-up: route intraperitoneal; conditions: in vivo, 96 h
[24] = tested on: Plasmodium vinckei petteri; experiment: Antiplasmodial activity against Plasmodium vinckei petteri infected in Swiss mouse assessed as inhibition of parasite growth at 1 mg/kg/day, po measured on day 4 postinfection; format: functional, organism-based
[25] = tested on: Plasmodium vinckei petteri; experiment: Antiplasmodial activity against Plasmodium vinckei petteri infected in Swiss mouse assessed as inhibition of parasite growth at 50 mg/kg/day, po measured on day 4 postinfection; format: functional, organism-based
[26] = tested on: Mus musculus; experiment: Toxicity in Swiss mouse at 250 mg/kg/day, po for 4 days measured upto day 30; format: organism-based; set-up: route oral; conditions: in vivo, 96 h
[27] = tested on: Plasmodium falciparum; experiment: Antiplasmodial activity against chloroquine-resistant Plasmodium falciparum W2 in presence of atovaquone; format: functional
[28] = tested on: Plasmodium falciparum; experiment: Antiplasmodial activity against chloroquine-resistant Plasmodium falciparum W2 in presence of artesunate; format: functional
[29] = tested on: Plasmodium vinckei petteri; experiment: Antiplasmodial activity against Plasmodium vinckei petteri infected in Swiss mouse assessed as inhibition of parasite growth at 100 mg/kg/day, ip measured on day 5 postinfection; format: functional; conditions: 120 h, route intraperitoneal
[30] = tested on: Plasmodium falciparum; experiment: Antiplasmodial activity against chloroquine-resistant Plasmodium falciparum W2 in presence of chloroquine; format: functional
[31] = tested on: Mus musculus; experiment: Toxicity in Swiss mouse at 1000 mg/kg/day, po for 4 days measured upto day 30; format: organism-based; set-up: route oral; conditions: in vivo, 96 h
[32] = tested on: Plasmodium vinckei petteri; experiment: Antiplasmodial activity against Plasmodium vinckei petteri infected in Swiss mouse assessed as recrudescence of malaria at 50 mg/kg/day, ip measured upto day 60 postinfection; format: functional, organism-based
[33] = tested on: Plasmodium falciparum; experiment: Antiplasmodial activity against chloroquine-resistant Plasmodium falciparum W2 in presence of artemisinin; format: functional
[34] = tested on: Vero; experiment: Cytotoxicity against Vero cells at 100 uM by MTS assay; format: cell-based; conditions: chlorocebus sabaeus
[35] = tested on: Plasmodium falciparum; experiment: Antiplasmodial activity against chloroquine-resistant Plasmodium falciparum W2 in presence of mefloquine; format: functional
[36] = tested on: Monocyte; experiment: Antioxidant activity in human Monocyte assessed as reduced in PMA-induced ROS production at 3.3 uM by chemiluminescence assay; format: functional, cell-based

## COc1ccc(CCN(C)CCCC(C#N)(c2ccc(OC)c(OC)c2)C(C)C)cc1OC (stereo unspecified) [VERAPAMIL]
[1]
  Activity: 0.31 µM

## OC1(c2ccc(Cl)c(C(F)(F)F)c2)CCN(CCCC(c2ccc(F)cc2)c2ccc(F)cc2)CC1 [PENFLURIDOL]
[2]
  Activity: 96 ng/mL

## C[C@@H]1CC[C@H]2[C@@H](C)C(=O)O[C@@H]3O[C@@]4(C)CC[C@@H]1[C@]32OO4 [ARTEMISININ]
[3]
  IC50: 12.2 nM
[4]
  IC50: 13.3 nM
[5]
  IC50: 13.5 nM
[6]
  IC50: 12.5 nM

## O=c1oc2c(O)c(O)cc3c(=O)oc4c(O)c(O)cc1c4c23 [ELLAGIC ACID]
[7]
  Activity: Non-toxic
[3]
  IC50: 180 nM
[8]
  Activity: inactive
[9]
  Activity: Active
[10]
  Activity: Non-toxic
[11]
  Activity: Non-toxic
[12]
  Activity: Active
[13]
  Activity: Non-toxic
[14]
  Activity: Non-toxic
[15]
  Activity: Non-toxic
[16]
  Activity: Non-toxic
[4]
  IC50: 330 nM
[17]
  Activity: Active
[18]
  Activity: Active
[19]
  Activity: Active
[20]
  Activity: inactive
[5]
  IC50: 105 nM
[21]
  IC50: 300 nM
[22]
  inhibition in vivo at 50 mg/kg/day: 100%
[23]
  Activity: Non-toxic
[24]
  Activity: Active
[25]
  Activity: Active
[26]
  Activity: Non-toxic
[27]
  FIC50: 0.53
[2]
  Activity: 5 ng/mL
[28]
  FIC50: 0.57
[29]
  inhibition in vivo at 100 mg/kg/day: 100%
[30]
  FIC50: 0.63
[31]
  Activity: Non-toxic
[32]
  Activity: Active
[33]
  FIC50: 1.26
[6]
  IC50: 330 nM
[34]
  Activity: Non-toxic
[35]
  FIC50: 0.64
[36]
  Activity: Active
